Source: paper PMC6357742, “Porphyromonas gingivalis in Alzheimer’s disease brains: Evidence for disease causation and treatment with small-molecule inhibitors” (Science Advances, 2019)

Key:
FXa = FXa (Homo sapiens, UniProt P00742); assay: Cellular protease profiling; assay type: biochemical
caspase family enzymes = assay: Cellular protease profiling; assay type: biochemical
Kgp [1] = biological target: T1, Kgp (Porphyromonas gingivalis, UniProt B2RLK2); assay type: biochemical, P. gingivalis; details: recovery of enzyme activity following dilution of enzyme/inhibitor complexes
[2] = system: deubiquitinating peptidases; assay: Cellular protease profiling; assay type: biochemical
P. gingivalis [3] = assay: Kgp-dependent growth of P. gingivalis in defined medium; assay type: cell-based; details: 500 nM, over 43 hours
tryptase = assay: Cellular protease profiling; assay type: biochemical
P. gingivalis W83 = assay: P. gingivalis oral infection in mice, Experiment 3 (brain qPCR, Aβ1–42 and TNFα ELISA); assay type: in vivo, BALB/c mice; details: days 36 to 70
DPP4 = DPP4 (Homo sapiens, UniProt P27487); assay: Cellular protease profiling; assay type: biochemical
calpain = assay: Cellular protease profiling; assay type: biochemical
Kgp [4] = biological target: T1, Kgp; assay type: binding, P. gingivalis; details: human oral subgingival plaque, preincubation with COR388
P. gingivalis [5] = assay type: cell-based
cathepsin S = cathepsin S (Homo sapiens, UniProt P25774); assay: Cellular protease profiling; assay type: biochemical
FVIIa = biological target: T2, FVIIa (Homo sapiens, UniProt P08709); assay: Cellular protease profiling; assay type: biochemical
T2 sequence (P08709 213-466 limits assumed): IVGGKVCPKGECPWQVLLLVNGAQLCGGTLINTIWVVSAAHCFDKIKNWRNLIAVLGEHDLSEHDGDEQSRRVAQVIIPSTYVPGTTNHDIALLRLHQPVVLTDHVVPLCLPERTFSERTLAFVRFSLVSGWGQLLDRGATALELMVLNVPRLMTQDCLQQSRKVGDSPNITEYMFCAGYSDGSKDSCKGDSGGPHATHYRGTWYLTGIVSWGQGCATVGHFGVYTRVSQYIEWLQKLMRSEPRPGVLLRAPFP
T2 sequence (P08709 61-212 partner limits assumed): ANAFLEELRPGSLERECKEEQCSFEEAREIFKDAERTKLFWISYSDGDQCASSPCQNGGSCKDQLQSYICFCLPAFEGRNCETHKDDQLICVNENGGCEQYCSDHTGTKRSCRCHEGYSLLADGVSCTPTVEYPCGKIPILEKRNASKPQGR

proteasome = assay: Cellular protease profiling; assay type: biochemical
[6] = Oral pharmacokinetic properties and CNS penetration; details: in vivo
plasmin = plasmin (Homo sapiens, UniProt P00747); assay: Cellular protease profiling; assay type: biochemical
Kgp [7] = biological target: Kgp (Porphyromonas gingivalis, UniProt Q51817); assay type: binding, P. gingivalis
BACE1 = BACE1 (Homo sapiens, UniProt P56817); assay: Cellular protease profiling; assay type: biochemical
thrombin = thrombin (Homo sapiens, UniProt P00734); assay: Cellular protease profiling; assay type: biochemical
[8] = system: SH-SY5Y cells infected with P. gingivalis W83; assay: AlamarBlue viability of SH-SY5Y cells challenged with P. gingivalis; assay type: cell-based, human; details: W83 strain, MOI of 400, 48 hours
[9] = system: differentiated SH-SY5Y cells exposed to RgpB and Kgp; assay: Gingipain-induced aggregation of differentiated SH-SY5Y cells; assay type: cell-based, human; details: pretreatment of gingipains; RgpB and Kgp 10 μg/ml, 24 hours
P. gingivalis [10] = assay: Antimicrobial effects of Aβ on P. gingivalis (LIVE/DEAD BacLight); assay type: cell-based; parameters: dose or concentration left out as unconfirmed; details: 37°C, anaerobic, 24 hours
[11] = 10 and 30 mg/kg oral twice daily

NCCCC[C@H](NC(=O)C1CCCC1)C(=O)COc1c(F)ccc(F)c1F [COR388]
IC50 (FXa): > 10 µM
IC50 (caspase family enzymes): > 10 µM
mode of inhibition (Kgp [1]): irreversible binding kinetics
IC50 [2]: > 10 µM
growth of P. gingivalis in defined growth medium (P. gingivalis [3]): inhibited the growth
IC50 (tryptase): > 10 µM
Aβ1–42 level in brain tissue (P. gingivalis W83; 3 mg/kg oral twice daily): did not reduce
P. gingivalis load in brain tissue (P. gingivalis W83; 3 mg/kg oral twice daily): some reduction
TNFα level in brain tissue (P. gingivalis W83; 3 mg/kg oral twice daily): did not reduce
Aβ1–42 level in brain tissue compared to infected vehicle (P. gingivalis W83; [11]): reduced
P. gingivalis load in brain tissue compared to infected vehicle (P. gingivalis W83; [11]): reduced
TNFα level in brain tissue compared to infected vehicle (P. gingivalis W83; [11]): reduced
IC50 (DPP4): > 10 µM
IC50 (calpain): > 10 µM
Kgp target engagement ex vivo (COR553 probe binding after preincubation) (Kgp [4]): blocked probe binding to the active site
development of resistance on repeat passaging (P. gingivalis [5]): did not develop
IC50 (cathepsin S): > 10 µM
IC50 (FVIIa): > 10 µM
IC50 (proteasome): > 10 µM
CNS penetration [6]: significant CNS penetration
oral bioavailability / oral pharmacokinetics ([6]; po): superior oral pharmacokinetic
IC50 (plasmin): > 10 µM
Kgp target engagement (COR553 probe binding after preincubation) (Kgp [7]): block of COR553 activity probe binding
IC50 (BACE1): > 10 µM
IC50 (thrombin): > 10 µM

C[C@H]1c2cccc(O)c2C(=O)C2=C(O)[C@]3(O)C(=O)C(C(N)=O)=C(O)[C@@H](N(C)C)[C@@H]3[C@@H](O)[C@@H]21 [doxycycline]
protection against P. gingivalis–induced cell death [8]: did not protect the cells

NC(=O)CI [iodoacetamide]
gingipain-induced cell aggregation [9]: prevented gingipain-induced aggregation

COc1c(N2C[C@@H]3CCCN[C@@H]3C2)c(F)cc2c(=O)c(C(=O)O)cn(C3CC3)c12 [moxifloxacin]
protection against P. gingivalis–induced cell death [8]: did not protect the cells
development of resistance on repeat passaging (P. gingivalis [5]): complete resistance
increase of minimum inhibitory concentration (MIC) on passaging (P. gingivalis [5]; 12 passages): over 1000 fold

CC(C)[C@H](O)C(=O)N[C@@H](C)C(=O)N[C@@H]1C(=O)N(C)CCc2ccccc21 [semagacestat]
protection against P. gingivalis–induced cell death [8]: no protective effect

Aβ1–42: Recombinant Aβ (1-42) Ultra-Pure, Ammonium Hydroxide (rProtein)
viability of P. gingivalis (P. gingivalis [10]): decreased viability
